Laboratory results: patent US8541427B2, “Phenyl-substituted 2-imino-3-methyl pyrrolo pyrimidinone compounds as BACE-1 inhibitors, compositions, and their use” (Merck, Sharp & Dohme, Corp., priority 2008, dated 2013)
Like-named read-outs stand apart in the source and are kept apart here.

Assays:
[1] = molecular target: BACE1 (Aβ40 in HEK293-APPswe/lon cells) (Homo sapiens (Human), UniProt P56817); experiment: BACE Inhibitor Whole Cell IC50 Determination Using HEK293-APPswe/lon Cells (Aβ40); format: cell-based; details: 4 hours
BACE1 (Aβ40 in HEK293-APPswe/lon cells), sequence (P56817 46-501): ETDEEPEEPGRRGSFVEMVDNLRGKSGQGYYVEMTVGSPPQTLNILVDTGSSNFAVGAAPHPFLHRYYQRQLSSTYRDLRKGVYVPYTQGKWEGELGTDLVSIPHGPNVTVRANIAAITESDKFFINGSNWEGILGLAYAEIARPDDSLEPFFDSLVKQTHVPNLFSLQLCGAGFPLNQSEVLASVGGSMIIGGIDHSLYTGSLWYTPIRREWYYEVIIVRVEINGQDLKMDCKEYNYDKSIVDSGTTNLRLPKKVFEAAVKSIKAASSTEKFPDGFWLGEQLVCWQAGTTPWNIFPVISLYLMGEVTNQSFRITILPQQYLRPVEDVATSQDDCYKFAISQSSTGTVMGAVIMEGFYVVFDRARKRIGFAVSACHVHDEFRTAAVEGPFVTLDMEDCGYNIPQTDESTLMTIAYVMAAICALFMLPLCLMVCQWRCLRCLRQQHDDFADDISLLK

CYP3A4 = CYP3A4 (Homo sapiens (Human), UniProt P08684); experiment: CYP Inhibition Assay, CYP3A4; format: in vitro ADME; details: human liver microsomes;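 also: CYP probe substrate held near its Km, inhibition judged from metabolite formation quantified by LC-MS/MS against a standard curve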
CYP3A4, sequence (P08684 whole entry): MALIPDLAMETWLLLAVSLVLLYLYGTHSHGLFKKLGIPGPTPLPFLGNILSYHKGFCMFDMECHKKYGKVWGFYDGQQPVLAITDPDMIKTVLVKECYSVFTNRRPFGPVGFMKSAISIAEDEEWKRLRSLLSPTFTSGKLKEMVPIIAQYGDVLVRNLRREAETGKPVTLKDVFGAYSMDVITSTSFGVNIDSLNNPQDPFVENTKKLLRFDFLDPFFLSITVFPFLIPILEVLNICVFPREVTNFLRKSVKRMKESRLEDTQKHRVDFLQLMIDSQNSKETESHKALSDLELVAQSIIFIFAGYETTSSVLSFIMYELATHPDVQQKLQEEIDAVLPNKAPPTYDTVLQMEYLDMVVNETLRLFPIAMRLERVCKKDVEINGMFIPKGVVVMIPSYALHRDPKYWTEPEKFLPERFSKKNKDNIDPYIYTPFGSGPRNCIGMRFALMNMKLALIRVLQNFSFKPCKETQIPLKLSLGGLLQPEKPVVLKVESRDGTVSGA

hERG = hERG (Homo sapiens (Human), UniProt Q12809); experiment: hERG screening, IonWorks Quattro (hERG L929 cells); format: cell-based; details: L929 cells expressing hERG; for inhibition at 5 min, 1 uM: read-out: HERG Ionworks % Inhib 1 uM; for inhibition at 5 min, 10 uM: read-out: HERG Ionworks % Inhib 10 uM
hERG, sequence (Q12809 whole entry): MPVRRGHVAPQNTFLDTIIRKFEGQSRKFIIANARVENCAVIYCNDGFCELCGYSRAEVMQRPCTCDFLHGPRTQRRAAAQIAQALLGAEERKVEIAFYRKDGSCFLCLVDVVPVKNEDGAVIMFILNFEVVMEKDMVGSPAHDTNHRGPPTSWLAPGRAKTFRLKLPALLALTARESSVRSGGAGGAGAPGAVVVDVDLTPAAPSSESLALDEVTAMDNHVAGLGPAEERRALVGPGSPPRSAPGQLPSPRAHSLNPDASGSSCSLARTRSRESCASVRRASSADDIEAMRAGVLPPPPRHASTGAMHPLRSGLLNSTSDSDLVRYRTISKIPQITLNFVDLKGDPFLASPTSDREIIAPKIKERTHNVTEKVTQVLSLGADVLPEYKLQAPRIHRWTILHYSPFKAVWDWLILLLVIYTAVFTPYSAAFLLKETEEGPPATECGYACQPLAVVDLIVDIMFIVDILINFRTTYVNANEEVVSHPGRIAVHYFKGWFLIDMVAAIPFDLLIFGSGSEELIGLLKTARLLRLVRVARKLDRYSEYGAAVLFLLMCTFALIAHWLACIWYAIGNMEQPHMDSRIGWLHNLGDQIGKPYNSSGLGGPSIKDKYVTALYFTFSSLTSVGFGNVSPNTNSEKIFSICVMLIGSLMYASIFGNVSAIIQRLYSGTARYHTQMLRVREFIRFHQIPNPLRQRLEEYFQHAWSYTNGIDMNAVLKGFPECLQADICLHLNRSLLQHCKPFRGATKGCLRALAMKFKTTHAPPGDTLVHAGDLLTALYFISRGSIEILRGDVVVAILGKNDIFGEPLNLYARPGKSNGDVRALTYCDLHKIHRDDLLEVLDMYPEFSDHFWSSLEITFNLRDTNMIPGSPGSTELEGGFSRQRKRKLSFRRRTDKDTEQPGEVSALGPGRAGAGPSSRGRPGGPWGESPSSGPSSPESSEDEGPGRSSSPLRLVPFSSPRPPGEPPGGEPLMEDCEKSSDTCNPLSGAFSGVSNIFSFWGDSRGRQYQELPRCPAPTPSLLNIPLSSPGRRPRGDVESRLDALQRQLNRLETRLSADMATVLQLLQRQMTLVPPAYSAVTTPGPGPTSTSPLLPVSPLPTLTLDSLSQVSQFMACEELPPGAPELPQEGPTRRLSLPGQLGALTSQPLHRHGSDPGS

CYP2C9 = CYP2C9 (Homo sapiens (Human), UniProt P11712); experiment: CYP Inhibition Assay, CYP2C9; format: in vitro ADME; details: human liver microsomes;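 also: probe substrate held close to its Km, with metabolite formation quantified by LC-MS/MS against a calibration curve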
CYP2C9, sequence (P11712 whole entry, the tested form may be a part): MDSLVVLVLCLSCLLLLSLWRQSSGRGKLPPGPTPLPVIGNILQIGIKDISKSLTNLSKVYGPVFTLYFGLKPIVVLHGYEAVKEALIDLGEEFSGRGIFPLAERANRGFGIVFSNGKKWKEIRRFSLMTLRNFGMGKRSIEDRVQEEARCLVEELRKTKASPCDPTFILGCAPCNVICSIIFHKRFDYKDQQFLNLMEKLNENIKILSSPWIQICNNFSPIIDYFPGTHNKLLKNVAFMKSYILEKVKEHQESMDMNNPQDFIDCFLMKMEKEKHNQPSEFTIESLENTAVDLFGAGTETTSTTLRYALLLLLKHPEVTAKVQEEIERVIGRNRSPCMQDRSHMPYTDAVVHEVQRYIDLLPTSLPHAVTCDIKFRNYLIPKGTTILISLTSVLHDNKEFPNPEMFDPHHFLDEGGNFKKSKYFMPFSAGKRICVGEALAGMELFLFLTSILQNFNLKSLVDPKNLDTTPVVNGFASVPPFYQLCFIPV

[2] = molecular target: soluble human BACE1 catalytic domain (Homo sapiens (Human), UniProt P56817); experiment: BACE1 HTRF FRET Assay; format: biochemical; details: Ki calculated from IC50 with Cheng-Prusoff equation;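 also: cleavage of a quenched APP Swedish mutant peptide (QSY7 quencher, Europium donor) measured as rise in 620 nm fluorescence after 1.5 h at 30 °C, inhibition suppresses signal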
soluble human BACE1 catalytic domain, sequence (P56817 75-416): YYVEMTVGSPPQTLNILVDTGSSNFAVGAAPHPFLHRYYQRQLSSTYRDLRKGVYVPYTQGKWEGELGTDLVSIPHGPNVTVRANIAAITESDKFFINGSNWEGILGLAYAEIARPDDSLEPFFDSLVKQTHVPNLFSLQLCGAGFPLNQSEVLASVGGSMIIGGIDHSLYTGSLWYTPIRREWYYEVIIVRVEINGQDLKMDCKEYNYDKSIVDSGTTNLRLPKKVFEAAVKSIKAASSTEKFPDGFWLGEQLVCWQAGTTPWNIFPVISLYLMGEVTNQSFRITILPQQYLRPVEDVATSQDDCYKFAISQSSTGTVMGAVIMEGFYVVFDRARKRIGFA

CYP2D6 = CYP2D6 (Homo sapiens (Human), UniProt P10635); experiment: CYP Inhibition Assay, CYP2D6; format: in vitro ADME; details: human liver microsomes
CYP2D6, sequence (P10635 whole entry): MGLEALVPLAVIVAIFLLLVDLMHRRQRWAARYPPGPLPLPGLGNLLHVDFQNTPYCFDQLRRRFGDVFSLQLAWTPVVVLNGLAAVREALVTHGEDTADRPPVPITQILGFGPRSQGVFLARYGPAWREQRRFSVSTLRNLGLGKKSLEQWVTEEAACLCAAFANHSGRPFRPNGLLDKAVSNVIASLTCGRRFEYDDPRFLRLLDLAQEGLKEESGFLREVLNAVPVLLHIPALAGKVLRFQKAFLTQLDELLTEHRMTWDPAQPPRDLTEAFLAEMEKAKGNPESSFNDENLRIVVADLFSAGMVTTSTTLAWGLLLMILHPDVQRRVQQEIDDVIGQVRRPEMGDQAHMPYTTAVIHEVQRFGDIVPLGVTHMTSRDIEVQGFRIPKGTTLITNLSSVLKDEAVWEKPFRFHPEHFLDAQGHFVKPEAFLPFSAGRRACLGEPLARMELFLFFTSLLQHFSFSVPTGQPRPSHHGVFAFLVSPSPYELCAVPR

human liver Cathepsin D = human liver Cathepsin D (Homo sapiens (Human), UniProt P07339); experiment: Human Cathepsin D FRET Assay; format: biochemical; details: selectivity with respect to Cathepsin D vs BACE1
human liver Cathepsin D, sequence (P07339 65-412): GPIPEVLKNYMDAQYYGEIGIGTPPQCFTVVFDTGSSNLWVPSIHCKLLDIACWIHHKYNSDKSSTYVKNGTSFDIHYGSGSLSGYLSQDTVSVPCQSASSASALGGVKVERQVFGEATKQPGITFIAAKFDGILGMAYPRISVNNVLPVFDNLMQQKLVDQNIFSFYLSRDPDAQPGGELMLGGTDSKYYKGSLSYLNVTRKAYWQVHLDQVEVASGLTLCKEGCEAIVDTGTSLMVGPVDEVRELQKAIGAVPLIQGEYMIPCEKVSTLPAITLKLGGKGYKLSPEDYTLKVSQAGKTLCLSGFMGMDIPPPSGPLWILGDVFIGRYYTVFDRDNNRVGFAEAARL
human liver Cathepsin D, sequence (P07339 169-412): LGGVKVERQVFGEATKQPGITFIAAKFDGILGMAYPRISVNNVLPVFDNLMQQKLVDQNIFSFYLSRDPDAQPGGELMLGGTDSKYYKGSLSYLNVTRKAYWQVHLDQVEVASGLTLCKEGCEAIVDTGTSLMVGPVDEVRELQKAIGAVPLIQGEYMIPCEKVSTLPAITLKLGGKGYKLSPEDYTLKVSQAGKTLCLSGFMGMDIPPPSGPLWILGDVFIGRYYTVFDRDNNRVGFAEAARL

[3] = 30 min pre-incubation with NADPH, read-out: CYP 3A4 IC50 pre
[4] = co-incubation, read-out: CYP 3A4 IC50 co
[5] = 30 min pre-incubation with NADPH, read-out: CYP 2C9 IC50 pre
[6] = co-incubation, read-out: CYP 2C9 IC50 co
[7] = 30 min pre-incubation with NADPH, read-out: CYP 2D6 IC50 pre
[8] = co-incubation, read-out: CYP 2D6 IC50 co

| Compound | IC50 [1] [µM] | IC50 (CYP3A4; [3]) [µM] | IC50 (CYP3A4; [4]) [µM] | inhibition at 5 min, 1 uM (hERG) [%] | inhibition at 5 min, 10 uM (hERG) [%] | IC50 (CYP2C9; [5]) [µM] | IC50 (CYP2C9; [6]) [µM] | Ki [2] [µM] | IC50 (CYP2D6; [7]) [µM] | IC50 (CYP2D6; [8]) [µM] | CathD Selectivity (human liver Cathepsin D) |
| --- | --- | --- | --- | --- | --- | --- | --- | --- | --- | --- | --- |
| Cc1nc(N2C[C@H]3C(=O)N(C)C(=N)N[C@@]3(c3cccc(C#N)c3)C2)nc(C2CC2)c1F [Example 14] | 0.213 | > 20 | > 20 | 6 | 59 | > 20 | > 20 | 0.043 | > 20 | > 20 | – |
| CCOc1nc(N2C[C@H]3C(=O)N(C)C(=N)N[C@@]3(c3ccccc3)C2)nc(OC)c1F (racemic) [24 racemic] | – | > 30 | > 30 | – | – | > 30 | > 30 | 0.137 | ~30 | 22.6 | 129 |
| CCc1nc(N2C[C@H]3C(=O)N(C)C(N)=N[C@@]3(c3ccccc3)C2)nc(C2CC2)c1Cl (racemic) [26 racemic] | – | > 20 | > 20 | – | – | > 20 | > 20 | 0.18 | > 20 | > 20 | – |
| CCc1nc(N2C[C@H]3C(=O)N(C)C(=N)N[C@@]3(c3ccccc3)C2)nc(OC)c1F (racemic) [6 racemic] | 0.144 | > 30 | > 30 | – | – | > 30 | > 30 | 0.016 | ~30 | 24.9 | 318 |
| CCOc1nc(N2C[C@H]3C(=O)N(C)C(N)=N[C@@]3(c3ccccc3)C2)nc(C)c1F (racemic) [4 racemic] | – | > 30 | > 30 | – | – | > 30 | > 30 | – | > 30 | ~30 | – |
| COc1nc(N2C[C@H]3C(=O)N(C)C(N)=N[C@@]3(c3cc(F)c(F)cc3F)C2)nc(C)c1F [Example 8] | – | > 20 | > 20 | 21 | 89 | > 20 | > 20 | – | > 20 | > 20 | – |
| COc1nc(N2C[C@H]3C(=O)N(C)C(=N)N[C@@]3(c3cc(Cl)ccc3F)C2)nc(C)c1F [Example 3] | – | > 20 | > 20 | 22 | 89 | 12.7 | 8.5 | – | > 20 | > 20 | – |
| Cc1nc(N2C[C@H]3C(=O)N(C)C(N)=N[C@@]3(c3ccccc3)C2)nc(C2CC2)c1Cl (racemic) [7 racemic] | 0.664 | – | – | – | – | – | – | 0.094 | – | – | – |
| COc1nc(N2C[C@H]3C(=O)N(C)C(=N)N[C@@]3(c3c(F)cc(F)cc3F)C2)nc(C)c1F [Example 13] | 0.021 | > 20 | > 20 | – | – | > 20 | > 20 | 0.015 | > 20 | > 20 | 773 |
| COc1nc(N2C[C@H]3C(=O)N(C)C(=N)N[C@@]3(c3ccc(F)cc3F)C2)nc(C(F)(F)F)c1F [Example 41] | 0.067 | – | – | 1 | 77 | – | – | 0.032 | – | – | 346 |
| Cc1nc(N2C[C@H]3C(=O)N(C)C(N)=N[C@@]3(c3ccccc3)C2)nc(C)c1F (racemic) [23 racemic] | 0.292 | > 30 | > 30 | – | – | > 30 | > 30 | 0.154 | > 30 | > 30 | – |
| COc1nc(N2C[C@H]3C(=O)N(C)C(=N)N[C@@]3(c3ccccc3F)C2)nc(C)c1Cl [Example 18] | 0.032 | – | – | – | – | – | – | 0.0093 | – | – | 228 |
| Cc1nc(N2C[C@H]3C(=O)N(C)C(=N)N[C@@]3(c3cc(F)ccc3F)C2)nc(C2CC2)c1F [Example 37] | 0.235 | > 20 | > 20 | 12 | 73 | > 20 | > 20 | 0.026 | > 20 | > 20 | – |
| Cc1nc(N2C[C@H]3C(=O)N(C)C(N)=N[C@@]3(c3ccccc3)C2)nc(C2CC2)c1F (racemic) [25 racemic] | 0.349 | > 20 | > 20 | – | – | > 20 | > 20 | 0.044 | > 20 | > 20 | – |
